Results: ChEMBL document CHEMBL1148081, “Corticatic acids A-C, antifungal acetylenic acids from the marine sponge, Petrosia corticata” (J Nat Prod, 1994)
Activity calls are given as the source filed them. No cut-off for these calls is given here.

Test system: Umbelopsis ramanniana
Test: Antimicrobial activity against Mortierella ramanniana
Format: functional, organism-based

| SMILES | Activity |
| --- | --- |
| C#CC(O)/C=C/CCCCCC#CC/C=C\CCCCCCCCCCC/C=C/C#CC(=O)O (configuration not stated) | Active |
| C#CC(O)/C=C/CCCCCC#CC/C=C\CCCCCCCCCCC/C=C\C#CC(=O)O (configuration not stated) | Active |
